Measured values published in patent publication US20140343049A1, “DIHYDROFURAN DERIVATIVES AS INSECTICIDAL COMPOUNDS” (SYNGENTA PARTICIPATIONS AG, priority 2011, published 2014).

Columns and labels:
Format in all cases: in vivo
[1] = tested on: Spodoptera littoralis (Egyptian cotton leafworm); experiment: Spodoptera littoralis cotton leaf disc spray test; details: foliar, 72 h, cotton leaf discs sprayed at 200 ppm, 5 L1 larvae, mortality, feeding behavior, growth regulation 3 days after treatment
Source text: Cotton leaf discs were placed on agar in a 24-well microtiter plate and sprayed with test solutions at an application rate of 200 ppm. After drying, the leaf discs were infested with 5 L1 larvae. The samples were checked for mortality, feeding behavior, and growth regulation 3 days after treatment (DAT).

[2] = tested on: Heliothis virescens (tobacco budworm); experiment: Heliothis virescens egg test on artificial diet; details: 96 h, 200 ppm (concentration in well 18 ppm), eggs 0-24 h old, 4 days, egg mortality, larval mortality, growth regulation
Description: Eggs (0-24 h old) were placed in 24-well microtiter plate on artificial diet and treated with test solutions at an application rate of 200 ppm (concentration in well 18 ppm) by pipetting. After an incubation period of 4 days, samples were checked for egg mortality, larval mortality, and growth regulation.

[3] = tested on: Plutella xylostella (diamond back moth); experiment: Plutella xylostella L2 larvae test on artificial diet; details: 144 h, 200 ppm (concentration in well 18 ppm), 6 days, larval mortality and growth regulation
Description: (§1) 24-well microtiter plate (MTP) with artificial diet was treated with test solutions at an application rate of 200 ppm (concentration in well 18 ppm) by pipetting. After drying, the MTPs were infested with L2 larvae (7-12 per well). After an incubation period of 6 days, samples were checked for larval mortality and growth regulation.

[4] = tested on: Diabrotica balteata (corn root worm); experiment: Diabrotica balteata L2 larvae test on artificial diet; details: 120 h, 200 ppm (concentration in well 18 ppm), 5 days, larval mortality and growth regulation
Description: as §1, with “A 24-well” for “24-well”, “(6-10” for “(7-12”, “5” for “6”
as §1, with “A 24-well” for “24-well”, “12.5” for “200”, “MTP's” for “MTPs”, “(6-10” for “(7-12”, “5” for “6”

[5] = tested on: Thrips tabaci (onion thrips); experiment: Thrips tabaci sunflower leaf disc spray test; details: foliar, 168 h, sunflower leaf discs sprayed at 200 ppm, mixed ages, mortality after 7 days
Description: Sunflower leaf discs were placed on agar in a 24-well microtiter plate and sprayed with test solutions at an application rate of 200 ppm. […] After drying, the leaf discs were infested with a thrip population of mixed ages. After an incubation period of 7 days, samples were checked for mortality.

[6] = tested on: Tetranychus urticae (two-spotted spider mite); experiment: Tetranychus urticae bean leaf disc spray test; details: foliar, 192 h, bean leaf discs sprayed at 200 ppm, mixed ages, egg, larval and adult mortality 8 days later
Source text: Bean leaf discs on agar in 24-well microtiter plates were sprayed with test solutions at an application rate of 200 ppm. After drying, the leaf discs are infested with mite populations of mixed ages. 8 days later, discs are checked for egg mortality, larval mortality, and adult mortality. […]

[7] = tested on: Myzus persicae (green peach aphid); experiment: Myzus persicae (sachet) mixed population test; details: 120 h, sucrose solution, application rate 12.5 ppm, mortality 5 days after infestation
Source text: Test compounds were applied by pipette into 24 well plates and mixed with Sucrose solution. The plates were closed with a stretched Parafilm. A plastic stencil with 24 holes is placed onto the plate and infested pea seedlings were placed directly on the Parafilm. The infested plate is closed with a gel blotting paper and another plastic stencil and then turned upside down. 5 days after infestation the samples were checked on mortality. Application rate: 12.5 ppm.

CCNC(=O)c1ccc(C2=CC(c3cc(Cl)cc(Cl)c3)(C(F)(F)F)OC2)cc1C (stereo not shown) [Compound A4]
≥ 80%: pest or weed control at 200 ppm [1] | pest or weed control at 200 ppm [2] | pest or weed control at 200 ppm [3] | pest or weed control at 200 ppm [4] | pest or weed control at 200 ppm [5] | pest or weed control at 200 ppm [6]

Cc1cc(C2=CC(c3cc(Cl)cc(Cl)c3)(C(F)(F)F)OC2)ccc1C(=O)NCc1cn(C)cn1 (stereo not shown) [Compound A17]
≥ 80%: pest or weed control at 200 ppm [1] | pest or weed control at 200 ppm [2] | pest or weed control at 200 ppm [3] | pest or weed control at 200 ppm [4] | pest or weed control at 200 ppm [5] | pest or weed control at 200 ppm [6]

Cc1cc(C2=CC(c3cc(Cl)cc(Cl)c3)(C(F)(F)F)OC2)ccc1C(=O)NCCCBr (stereo not shown) [Compound A19]
≥ 80%: pest or weed control at 200 ppm [1] | pest or weed control at 200 ppm [2] | pest or weed control at 200 ppm [3] | pest or weed control at 200 ppm [4] | pest or weed control at 200 ppm [5] | pest or weed control at 200 ppm [6]

Cc1cc(C2=CC(c3cc(Cl)cc(Cl)c3)(C(F)(F)F)OC2)ccc1C(=O)NCCC(F)(F)F (stereo not shown) [Compound A20]
≥ 80%: pest or weed control at 200 ppm [1] | pest or weed control at 200 ppm [2] | pest or weed control at 200 ppm [3] | pest or weed control at 200 ppm [4] | pest or weed control at 200 ppm [5] | pest or weed control at 200 ppm [6]

CCC(C)NC(=O)c1ccc(C2=CC(c3cc(Cl)cc(Cl)c3)(C(F)(F)F)OC2)cc1C (stereo not shown) [Compound A27]
≥ 80%: pest or weed control at 200 ppm [1] | pest or weed control at 200 ppm [2] | pest or weed control at 200 ppm [3] | pest or weed control at 200 ppm [4] | pest or weed control at 200 ppm [5] | pest or weed control at 200 ppm [6]

Cc1cc(C2=CC(c3cc(Cl)cc(Cl)c3)(C(F)(F)F)OC2)ccc1C(=O)NCC(F)F (stereo not shown) [Compound A29]
≥ 80%: pest or weed control at 200 ppm [1] | pest or weed control at 200 ppm [2] | pest or weed control at 200 ppm [3] | pest or weed control at 200 ppm [4] | pest or weed control at 200 ppm [5] | pest or weed control at 200 ppm [6]

C#CC1(NC(=O)c2ccc(C3=CC(c4cc(Cl)cc(Cl)c4)(C(F)(F)F)OC3)cc2C)CCCCC1 (stereo not shown) [Compound A30]
≥ 80%: pest or weed control at 200 ppm [3] | pest or weed control at 200 ppm [4] | pest or weed control at 200 ppm [5] | pest or weed control at 200 ppm [6]

Cc1cc(C2=CC(c3cc(Cl)cc(Cl)c3)(C(F)(F)F)OC2)ccc1C(=O)NCCC1OCCO1 (stereo not shown) [Compound A31]
≥ 80%: pest or weed control at 200 ppm [1] | pest or weed control at 200 ppm [3] | pest or weed control at 200 ppm [4] | pest or weed control at 200 ppm [5] | pest or weed control at 200 ppm [6]

Cc1cc(C2=CC(c3cc(Cl)cc(Cl)c3)(C(F)(F)F)OC2)ccc1C(=O)Nc1cccc(F)c1 (stereo not shown) [Compound A59]
≥ 80%: pest or weed control at 200 ppm [1] | pest or weed control at 200 ppm [2] | pest or weed control at 200 ppm [3] | pest or weed control at 200 ppm [5]

Cc1cc(C2=CC(c3cc(Cl)cc(Cl)c3)(C(F)(F)F)OC2)ccc1C(=O)NCC1CCS1(=O)=O (stereo not shown) [Compound A81]
≥ 80%: pest or weed control at 200 ppm [1] | pest or weed control at 200 ppm [2] | pest or weed control at 200 ppm [3] | pest or weed control at 200 ppm [4] | pest or weed control at 200 ppm [6]

CO/N=C/NC(=O)c1ccc(C2=CC(c3cc(Cl)cc(Cl)c3)(C(F)(F)F)OC2)cc1C (stereo not shown) [Compound A86, (E)-4-[5-(3,5-Dichlorophenyl)-5-trifluoromethyl-2,5-dihydro-furan-3-yl]-N-[(methoxyimino)methyl]-2-methylbenzamide]
≥ 80%: pest or weed control at 200 ppm [1] | pest or weed control at 200 ppm [2] | pest or weed control at 200 ppm [3] | pest or weed control at 200 ppm [4] | pest or weed control at 200 ppm [5] | pest or weed control at 200 ppm [6]

CCNC(=O)c1ccc(C2=CC(c3cc(Cl)cc(Cl)c3)(C(F)(F)F)OC2)nc1C (stereo not shown) [Compound C2]
≥ 80%: pest or weed control at 200 ppm [1] | pest or weed control at 200 ppm [3] | pest or weed control at 200 ppm [4] | pest or weed control at 200 ppm [5] | pest or weed control at 200 ppm [6]

COCC(C)NC(=O)c1ccc(C2=CC(c3cc(Cl)cc(Cl)c3)(C(F)(F)F)OC2)nc1C (stereo not shown) [Compound C4]
≥ 80%: pest or weed control at 200 ppm [1] | pest or weed control at 200 ppm [5]

CCC(C)NC(=O)c1ccc(C2=CC(c3cc(Cl)cc(Cl)c3)(C(F)(F)F)OC2)nc1C (stereo not shown) [Compound C7]
≥ 80%: pest or weed control at 200 ppm [1] | pest or weed control at 200 ppm [2] | pest or weed control at 200 ppm [3] | pest or weed control at 200 ppm [4] | pest or weed control at 200 ppm [5]

Cc1nc(C2=CC(c3cc(Cl)cc(Cl)c3)(C(F)(F)F)OC2)ccc1C(=O)NCc1ccc(Cl)nc1 (stereo not shown) [Compound C14]
≥ 80%: pest or weed control at 200 ppm [1] | pest or weed control at 200 ppm [2] | pest or weed control at 200 ppm [3] | pest or weed control at 200 ppm [4] | pest or weed control at 200 ppm [6]

Cc1nc(C2=CC(c3cc(Cl)cc(Cl)c3)(C(F)(F)F)OC2)ccc1C(=O)NC1(C)CSC1 (stereo not shown) [Compound C17]
≥ 80%: pest or weed control at 200 ppm [1] | pest or weed control at 200 ppm [3] | pest or weed control at 200 ppm [4] | pest or weed control at 200 ppm [5] | pest or weed control at 200 ppm [6]

Cc1nc(C2=CC(c3cc(Cl)cc(Cl)c3)(C(F)(F)F)OC2)ccc1C(=O)NC1CSC1 (stereo not shown) [Compound C19]
≥ 80%: pest or weed control at 200 ppm [1] | pest or weed control at 200 ppm [3] | pest or weed control at 200 ppm [4] | pest or weed control at 200 ppm [5] | pest or weed control at 200 ppm [6]

Cc1nc(C2=CC(c3cc(Cl)cc(Cl)c3)(C(F)(F)F)OC2)ccc1C(=O)NC1CC2CCC1C2 (stereo not shown) [Compound C20]
≥ 80%: pest or weed control at 200 ppm [1] | pest or weed control at 200 ppm [2] | pest or weed control at 200 ppm [3] | pest or weed control at 200 ppm [4] | pest or weed control at 200 ppm [5]

Cc1nc(C2=CC(c3cc(Cl)cc(Cl)c3)(C(F)(F)F)OC2)ccc1C(=O)NC1CCC1 (stereo not shown) [Compound C21]
≥ 80%: pest or weed control at 200 ppm [1] | pest or weed control at 200 ppm [2] | pest or weed control at 200 ppm [3] | pest or weed control at 200 ppm [4] | pest or weed control at 200 ppm [5]

Cc1cc(C2=CC(c3cc(Cl)cc(Cl)c3)(C(F)(F)F)OC2)ccc1C(=O)NCCC(F)(F)F (stereo not shown) [Compound D6]
≥ 80%: pest or weed control at 12.5 ppm [7]

CCC(C)NC(=O)c1ccc(C2=CC(c3cc(Cl)cc(Cl)c3)(C(F)(F)F)OC2)cc1C (stereo not shown) [Compound D7]
≥ 80%: pest or weed control at 12.5 ppm [7]

Cc1cc(C2=CC(c3cc(Cl)cc(Cl)c3)(C(F)(F)F)OC2)ccc1C(=O)NCc1ccc(Cl)nc1 (stereo not shown) [Compound D13]
≥ 80%: pest or weed control at 200 ppm [4] | pest or weed control at 12.5 ppm [7]

Cc1cc(C2=CC(c3cc(Cl)cc(Cl)c3)(C(F)(F)F)OC2)ccc1C(=O)Nc1cccc(F)c1 (stereo not shown) [Compound D14]
≥ 80%: pest or weed control at 200 ppm [4] | pest or weed control at 12.5 ppm [7] | pest or weed control at 200 ppm [6]

Cc1csc(NC(=O)c2ccc(C3=CC(c4cc(Cl)cc(Cl)c4)(C(F)(F)F)OC3)cc2C)n1 (stereo not shown) [Compound D17]
≥ 80%: pest or weed control at 200 ppm [4] | pest or weed control at 12.5 ppm [7]

Cc1cc(C2=CC(c3cc(Cl)cc(Cl)c3)(C(F)(F)F)OC2)ccc1C(=O)NC1CC2CCC1C2 (stereo not shown) [Compound D22]
≥ 80%: pest or weed control at 200 ppm [3] | pest or weed control at 200 ppm [4] | pest or weed control at 200 ppm [5]

Cc1cc(C2=CC(c3cc(Cl)cc(Cl)c3)(C(F)(F)F)OC2=O)ccc1C(=O)NCC(=O)NCC(F)(F)F (stereo not shown) [Compound E5]
≥ 80%: pest or weed control at 200 ppm [1] | pest or weed control at 200 ppm [2] | pest or weed control at 200 ppm [3] | pest or weed control at 200 ppm [4] | pest or weed control at 200 ppm [6]

Cc1cc(C2=CC(c3cc(Cl)cc(Cl)c3)(C(F)(F)F)OC2=O)ccc1C(=O)NC1CCC1 (stereo not shown) [Compound E18]
≥ 80%: pest or weed control at 200 ppm [5]
